Patent US12110293B2, “Substituted triazolo quinoxaline derivatives” (GRÜNENTHAL GMBH, priority 2018, dated 2024)

The molecules below were run against T1, glucocorticoid receptor (Homo sapiens, UniProt P04150) (assay: Agonistic mode of action on the glucocorticoid receptor (CHO-Gal4/GR luciferase reporter cell line)). Details: range class observed in the agonistic assay or the antagonistic assay (CHO-Gal4/GR reporter cells); table does not say which mode applies per example.
T1 construct: expressed in transfected cells
T1 sequence (P04150 524-758 limits assumed): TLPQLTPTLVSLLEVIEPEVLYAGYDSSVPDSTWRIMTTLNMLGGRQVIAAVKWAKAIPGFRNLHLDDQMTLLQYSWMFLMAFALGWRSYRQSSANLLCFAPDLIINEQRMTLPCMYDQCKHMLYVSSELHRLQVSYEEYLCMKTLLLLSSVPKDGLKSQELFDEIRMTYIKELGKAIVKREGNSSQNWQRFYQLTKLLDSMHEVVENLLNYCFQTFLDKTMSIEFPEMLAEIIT
Assay type: cell-based
Text: Potential selective glucocorticoid receptor modulators of this intervention can be tested for modulation of the activity of the glucocorticoid receptor using cell-based assays. These assays involve a Chinese hamster ovary (CHO) cell line which contains fragments of the glucocorticoid receptor as well as fusion proteins. The glucocorticoid receptor fragments used are capable of binding the ligand (e.g. beclomethasone) to identify molecules that compete for binding with glucocorticoid receptor ligands. In more detail, the glucocorticoid receptor ligand binding domain is 25 fused to the DNA binding domain (DBD) of the transcriptionfactor GAL4 (GAL4 DBD-GR) and is stably integrated into a CHO cell line containing a GAL4-UAS-Luciferase reporter construct. […] After cell lysis the luminescence that is produced by luciferase after addition of the substrate is detected and EC50 or IC50 values can be calculated. Engagement of molecules which induce gene expression via glucocortocoid receptor binding to the DNA leads to expression of the luciferase gene under the control of the fusion protein GAL4 DBD-GR and therefore to a dose-dependent increase of the luminescence signal. Binding of molecules which repress beclomethasone-induced gene expression of the luciferase gene under the control of the fusion protein GAL4 DBD-GR leads to a dose-dependent reduction of the luminescence signal.
Biological Assays Agonistic Mode of Action on the Glucocorticoid Receptor
The reporter cell line CHO-Gal4/GR consisted of a Chinese hamster ovary (CHO) cell line (Leibniz Institute DSMZ—German Collection of Microorganisms and Cell CuItures GmbH: ACC-110) containing a firefly luciferase gene under the control of the GR ligand binding domain fused to the DNA binding domain (DBD) of GAL4 (GAL4 DBD-GR) stably integrated into CHO cells. This cell line was established by stable transfection of CHO cells with a GAL4-UAS-Luciferase reporter construct. In a subsequent step the ligand binding domain of the GR cloned into pIRES2-EGFP-GAL4 containing the DNA binding domain of GAL4 from pFA-AT2 was transfected. This fusion construct activated firefly luciferase expression under the control of a multimerized GAL4 upstream activation sequence (UAS). The signal of the emitted luminescence was recorded by the FLIPR^TETRA. This allowed for specific detection of ligand-induced activation of the GR and therefore for the identification of compounds with agonistic properties. The GAL4/UAS reporter was premixed with a vector that constitutively expressed Renilla luciferase, which served as an internal positive control for transfection efficiency.
The complete culture medium for the assay was: • DMEM F-12 (1:1) MIXTURE (LONZA cat. N°: BE04-687F/U1) 500 mL • 5 mL of 100 mM Sodium Pyruvate (LONZA cat. N°: BE12-115E) • 25 mL of 7.5% Sodium Bicarbonate (LONZA cat. N° BE17-613E) • 6.5 mL of 1 M Hepes (LONZA cat. N°: BE17-737E) • 5 mL of 100× Penicillin/Streptomycin (LONZA cat. N° DE17-602E) • 50 mL of Fetal Bovine Serum (Euroclone cat. N° ECS 0180L) • 0.25 mL of 10 mg/mL Puromycin (InvivoGen cat.: ant-pr-1) • 0.5 mL of 100 mg/mL Zeocin (InvivoGen cat.: ant-zn-1)
Cryo-preserved CHO-Gal4/GR cells were suspended in complete medium and 5000 cells/25 μl/well were seeded into the wells of 384-well polystyrene assay plates (Thermo Scientific, cat. #4332) and cultured at 37° C., 5% CO2 and 95% humidity. After 24 hours growth medium was carefully removed and replaced by 30 μl Opti-MEM (GIBCO, cat. #31985062) as assay buffer. To test the compounds an 8-point half-log compound dilution curve was generated in 100% DMSO starting from a 2 mM stock and compounds were then diluted 1:50 in Opti-MEM. 10 μl of compounds were then added to the wells containing 30 μl Opti-MEM resulting in a final assay concentration range from 10 μM to 0.003 μM in 0.5% DMSO. Compounds were tested at 8 concentrations in quadruplicate data points.

SMILES | IC50 or EC50 (agonist or antagonist mode not specified) [nM]
Cc1nnc2n1-c1c(cc(F)c(-c3cc(F)cc4c3cnn4CC(F)F)c1F)NC2(C)C [Example 489, 8-[1-(2,2-Difluoro-ethyl)-6-fluoro-1H-indazol-4-yl]-7,9-difluoro-1,4,4-trimethyl-5H-[1,2,4]triazolo [4,3-a]quinoxaline] | < 100
COc1c(-c2cccc3c2cnn3S(C)(=O)=O)c(F)cc2c1-n1c(C)nnc1C(C)(C)N2 [Example 342, 7-Fluoro-9-methoxy-1,4,4-trimethyl-8-(1-methylsulfonyl-1H-indazol-4-yl)-5H-[1,2,4]triazolo[4,3-a] quinoxaline] | 1000 to 15000
Cc1cc(-c2c(F)cc3c(c2F)-n2c(C)nnc2C(C)(C)N3)c2ccn(S(C)(=O)=O)c2c1 [Example 492, 7,9-Difluoro-1,4,4-trimethyl-8-(6-methyl-1-methylsulfonyl-1H-indol-4-yl)-5H-[1,2,4]triazolo [4,3-a]quinoxaline] | < 100
Cc1c(-c2cccc3c2ccn3CC(F)F)c(F)cc2c1-n1c(C)nnc1C(C)(C)N2 [Example 330, 8-[1-(2,2-Difluoro-ethyl)-1H-indol-4-yl]-7-fluoro-1,4,4,9-tetramethyl-5H-[1,2,4]triazolo[4,3-a]quinoxaline] | < 100
COCCn1ncc2c(-c3c(F)cc4c(c3F)-n3c(C)nnc3C(C)(C)N4)cccc21 [Example 233, 7,9-Difluoro-8-[1-(2-methoxy-ethyl)-1H-indazol-4-yl]-1,4,4-trimethyl-5H-[1,2,4]triazolo[4,3-a]quinoxaline] | 100 to 1000
Cc1nnc2n1-c1c(ccc(-c3cccc4c3ccn4S(C)(=O)=O)c1C(F)F)NC2(C)C [Example 528, 9-(Difluoro-methyl)-1,4,4-trimethyl-8-(1-methylsulfonyl-1H-indol-4-yl)-5H-[1,2,4]triazolo [4,3-a]quinoxaline] | 100 to 1000
COc1cc2c(c(C(F)(F)F)c1-c1cccc3c1ccn3S(C)(=O)=O)-n1c(C)nnc1C(C)(C)N2 [Example 310, 7-Methoxy-1,4,4-trimethyl-8-(1-methylsulfonyl-1H-indol-4-yl)-9-(trifluoromethyl)-5H-[1,2,4]triazolo[4,3-a]quinoxaline] | 100 to 1000
COc1cc2c(c(C(F)(F)F)c1-c1cccc3c1ccn3C)-n1c(C)nnc1C(C)(C)N2 [Example 509, 7-Methoxy-1,4,4-trimethyl-8-(1-methyl-1H-indol-4-yl)-9-(trifluoromethyl)-5H-[1,2,4]triazolo[4,3-a]quinoxaline] | 100 to 1000
Cc1c(-c2cccc3c2ccn3C)c(Cl)cc2c1-n1c(C)nnc1C(C)(C)N2 [Example 488, 7-Chloro-1,4,4,9-tetramethyl-8-(1-methyl-1H-indol-4-yl)-5H-[1,2,4]triazolo[4,3-a]quinoxaline] | 100 to 1000
CCn1ncc2c(-c3c(F)cc4c(c3F)-n3c(C)nnc3C(C)(C)N4)cccc21 [Example 236, 8-(1-Ethyl-1H-indazol-4-yl)-7,9-difluoro-1,4,4-trimethyl-5H-[1,2,4]triazolo[4,3-a]quinoxaline] | 100 to 1000
Cc1nnc2n1-c1c(cc(F)c(-c3cccc4c3ccn4S(=O)(=O)C3CC3)c1C(F)F)NC2(C)C [Example 401, 8-[1-(Cyclopropylsulfonyl)-1H-indol-4-yl]-9-(difluoro-methyl)-7-fluoro-1,4,4-trimethyl-5H-[1,2,4]triazolo [4,3-a]quinoxaline] | 100 to 1000
Cc1nnc2n1-c1c(cc(F)c(-c3cccc4c3cnn4C)c1C(F)F)NC2(C)C [Example 294, 9-(Difluoro-methyl)-7-fluoro-1,4,4-trimethyl-8-(1-methyl-1H-indazol-4-yl)-5H-[1,2,4]triazolo[4,3-a]quinoxaline] | < 100
COCCn1ccc2c(-c3c(OC(F)F)cc4c(c3F)-n3c(C)nnc3C(C)(C)N4)cc(F)cc21 [Example 394, 7-(Difluoro-methoxy)-9-fluoro-8-[6-fluoro-1-(2-methoxy-ethyl)-1H-indol-4-yl]-1,4,4-trimethyl-5H-[1,2,4]triazolo[4,3-a]quinoxaline] | 1000 to 15000
Cc1c(-c2cc(F)cc3c2ccn3CCO)ccc2c1-n1c(C)nnc1C(C)(C)N2 [Example 451, 2-[6-Fluoro-4-(1,4,4,9-tetramethyl-5H-[1,2,4]triazolo[4,3-a]quinoxalin-8-yl)-1H-indol-1-yl]-ethanol] | 100 to 1000
Cc1nnc2n1-c1c(cc(F)c(-c3cccc4c3cnn4C(=O)OC(C)(C)C)c1F)NC2(C)C [Example 238, 4-(7,9-Difluoro-1,4,4-trimethyl-5H-[1,2,4]triazolo[4,3-a]quinoxalin-8-yl)-1H-indazole-1-carboxylic acid tert-butyl ester] | 100 to 1000
Cc1cc2c(c(C)c1-c1cccc3c1ccn3CC(F)F)-n1c(C)nnc1C(C)(C)N2 [Example 324, 8-[1-(2,2-Difluoro-ethyl)-1H-indol-4-yl]-1,4,4,7,9-pentamethyl-5H-[1,2,4]triazolo[4,3-a]quinoxaline] | 100 to 1000
CCc1nnc2n1-c1c(cc(F)c(-c3cccc4c3ccn4CCOC)c1C)NC2(C)C [Example 299, 1-Ethyl-7-fluoro-8-[1-(2-methoxy-ethyl)-1H-indol-4-yl]-4,4,9-trimethyl-5H-[1,2,4]triazolo[4,3-a]quinoxaline] | 1000 to 15000
CCc1c(-c2cc(F)cc3c2ccn3S(C)(=O)=O)c(F)cc2c1-n1c(C)nnc1C(C)(C)N2 [Example 46, 9-Ethyl-7-fluoro-8-(6-fluoro-1-methylsulfonyl-1H-indol-4-yl)-1,4,4-trimethyl-5H-[1,2,4]triazolo[4,3-a]quinoxaline] | < 100
Cc1nnc2n1-c1c(cc(F)c(-c3cc(F)cc4c3ccn4C3CC3)c1F)NC2(C)C [Example 2, 8-(1-cyclopropyl-6-fluoro-1H-indol-4-yl)-7,9-difluoro-1,4,4-trimethyl-4,5-dihydro-[1,2,4]triazolo[4,3-a]quinoxaline] | < 100
CCc1nnc2n1-c1c(cc(F)c(-c3cc(F)cc4c3ccn4CCOC)c1C)NC2(C)C [Example 36, 1-ethyl-7-fluoro-8-(6-fluoro-1-(2-methoxyethyl)-1H-indol-4-yl)-4,4,9-trimethyl-4,5-dihydro-[1,2,4]triazolo[4,3-a]quinoxaline] | 100 to 1000
Cc1nnc2n1-c1c(ccc(-c3cc(F)cc4c3ccn4S(C)(=O)=O)c1C(F)(F)F)NC2(C)C [Example 499, 8-(6-Fluoro-1-methylsulfonyl-1H-indol-4-yl)-1,4,4-trimethyl-9-(trifluoromethyl)-5H-[1,2,4]triazolo[4,3-a]quinoxaline] | 100 to 1000
Cc1nnc2n1-c1c(cc(F)c(-c3cccc4c(C5CC5)c[nH]c34)c1C(F)(F)F)NC2(C)C [Example 87, 8-(3-cyclopropyl-1H-indol-7-yl)-7-fluoro-1,4,4-trimethyl-9-(trifluoromethyl)-4,5-dihydro-[1,2,4]triazolo[4,3-a]quinoxaline] | 100 to 1000
